These are literature values, as cited in US11229617B2, “Topical anti-inflammatory compositions” (Achelios Therapeutics, Inc., priority 2016, dated 2022).

Regarding `CCCCCC(=O)O` [hexanoic (caproic) acid], the pKa is reported as 4.88.

As for `CC(C)(O)CC(=O)O` [hydroxymethyl-butyric acid], the pKa is listed as 4.55.
